This note sets out measurements from patent US11358949B2, “Carbamate and urea compounds as multikinase inhibitors” (ANGEX PHARMACEUTICAL, INC., priority 2017, dated 2022).

The structures appear in SMILES notation. A value given as a limit tells only on which side of the number the result lay.

One assay has as its target T1, c-MER (Homo sapiens, UniProt Q12866).
T1 sequence (Q12866 21-999): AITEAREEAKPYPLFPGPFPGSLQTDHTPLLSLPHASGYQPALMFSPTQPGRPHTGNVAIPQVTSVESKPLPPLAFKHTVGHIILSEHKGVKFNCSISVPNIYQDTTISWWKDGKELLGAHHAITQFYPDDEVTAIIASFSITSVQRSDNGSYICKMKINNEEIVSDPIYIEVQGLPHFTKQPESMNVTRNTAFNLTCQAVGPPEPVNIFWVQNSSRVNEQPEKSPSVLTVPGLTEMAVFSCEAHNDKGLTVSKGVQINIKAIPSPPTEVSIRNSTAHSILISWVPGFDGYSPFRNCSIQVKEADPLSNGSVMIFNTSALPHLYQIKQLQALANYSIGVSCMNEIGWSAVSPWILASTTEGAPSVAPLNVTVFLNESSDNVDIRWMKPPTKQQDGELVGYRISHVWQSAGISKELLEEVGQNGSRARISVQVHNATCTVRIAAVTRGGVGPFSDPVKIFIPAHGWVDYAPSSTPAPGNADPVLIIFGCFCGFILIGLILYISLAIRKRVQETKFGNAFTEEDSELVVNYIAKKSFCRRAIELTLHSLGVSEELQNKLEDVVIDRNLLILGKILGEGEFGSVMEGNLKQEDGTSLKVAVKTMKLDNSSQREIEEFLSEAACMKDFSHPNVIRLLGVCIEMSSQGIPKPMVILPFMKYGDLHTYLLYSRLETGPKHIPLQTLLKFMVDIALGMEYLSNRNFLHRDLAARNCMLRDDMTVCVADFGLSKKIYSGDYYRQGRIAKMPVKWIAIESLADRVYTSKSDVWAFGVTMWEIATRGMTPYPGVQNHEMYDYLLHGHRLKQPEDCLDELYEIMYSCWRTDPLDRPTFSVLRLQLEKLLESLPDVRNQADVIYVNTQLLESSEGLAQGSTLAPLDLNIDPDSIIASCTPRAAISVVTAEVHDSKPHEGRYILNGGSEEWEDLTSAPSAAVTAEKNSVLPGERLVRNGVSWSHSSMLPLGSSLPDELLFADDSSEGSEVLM
Briefly: HotSpot Kinase Assay, c-MER.

For another assay, the target named is T2, TYRO3/SKY (Homo sapiens, UniProt Q06418).
T2 sequence (Q06418 41-890): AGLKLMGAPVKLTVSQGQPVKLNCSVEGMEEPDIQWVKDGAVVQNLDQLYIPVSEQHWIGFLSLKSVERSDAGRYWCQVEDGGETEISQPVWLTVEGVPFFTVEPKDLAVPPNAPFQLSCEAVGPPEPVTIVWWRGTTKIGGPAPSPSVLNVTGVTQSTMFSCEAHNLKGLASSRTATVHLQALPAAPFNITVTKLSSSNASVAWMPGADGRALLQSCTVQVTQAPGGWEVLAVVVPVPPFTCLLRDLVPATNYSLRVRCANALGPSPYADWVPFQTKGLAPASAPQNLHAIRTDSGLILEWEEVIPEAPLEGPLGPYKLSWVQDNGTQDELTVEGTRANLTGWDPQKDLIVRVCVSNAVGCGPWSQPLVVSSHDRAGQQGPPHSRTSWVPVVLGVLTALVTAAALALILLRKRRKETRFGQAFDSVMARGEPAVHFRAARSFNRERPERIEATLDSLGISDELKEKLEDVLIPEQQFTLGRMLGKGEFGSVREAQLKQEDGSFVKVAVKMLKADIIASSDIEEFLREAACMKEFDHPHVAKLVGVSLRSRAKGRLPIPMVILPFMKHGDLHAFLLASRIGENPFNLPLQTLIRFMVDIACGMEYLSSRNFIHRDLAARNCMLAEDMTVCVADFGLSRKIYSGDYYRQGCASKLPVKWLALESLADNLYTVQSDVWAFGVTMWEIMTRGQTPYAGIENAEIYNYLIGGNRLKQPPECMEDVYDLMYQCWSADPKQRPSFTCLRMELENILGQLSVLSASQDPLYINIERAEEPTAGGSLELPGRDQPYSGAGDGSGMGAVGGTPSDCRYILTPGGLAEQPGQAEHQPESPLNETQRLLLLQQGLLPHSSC
Description: HotSpot Kinase Assay, TYRO3/SKY.

In the next assay the target is EPHA2 (Homo sapiens, UniProt P29317). Briefly: HotSpot Kinase Assay, EPHA2.
Another assay has as its target c-MET (Homo sapiens, UniProt P08581). Description: HotSpot Kinase Assay, c-MET.
In another assay the target is FMS (Homo sapiens, UniProt P07333). Description: HotSpot Kinase Assay, FMS.
For another assay, the target named is LOK/STK10 (Homo sapiens, UniProt O94804). Description: HotSpot Kinase Assay, LOK/STK10.
The target of the next assay is T3, AXL (Homo sapiens, UniProt P30530).
T3 sequence (P30530 26-894): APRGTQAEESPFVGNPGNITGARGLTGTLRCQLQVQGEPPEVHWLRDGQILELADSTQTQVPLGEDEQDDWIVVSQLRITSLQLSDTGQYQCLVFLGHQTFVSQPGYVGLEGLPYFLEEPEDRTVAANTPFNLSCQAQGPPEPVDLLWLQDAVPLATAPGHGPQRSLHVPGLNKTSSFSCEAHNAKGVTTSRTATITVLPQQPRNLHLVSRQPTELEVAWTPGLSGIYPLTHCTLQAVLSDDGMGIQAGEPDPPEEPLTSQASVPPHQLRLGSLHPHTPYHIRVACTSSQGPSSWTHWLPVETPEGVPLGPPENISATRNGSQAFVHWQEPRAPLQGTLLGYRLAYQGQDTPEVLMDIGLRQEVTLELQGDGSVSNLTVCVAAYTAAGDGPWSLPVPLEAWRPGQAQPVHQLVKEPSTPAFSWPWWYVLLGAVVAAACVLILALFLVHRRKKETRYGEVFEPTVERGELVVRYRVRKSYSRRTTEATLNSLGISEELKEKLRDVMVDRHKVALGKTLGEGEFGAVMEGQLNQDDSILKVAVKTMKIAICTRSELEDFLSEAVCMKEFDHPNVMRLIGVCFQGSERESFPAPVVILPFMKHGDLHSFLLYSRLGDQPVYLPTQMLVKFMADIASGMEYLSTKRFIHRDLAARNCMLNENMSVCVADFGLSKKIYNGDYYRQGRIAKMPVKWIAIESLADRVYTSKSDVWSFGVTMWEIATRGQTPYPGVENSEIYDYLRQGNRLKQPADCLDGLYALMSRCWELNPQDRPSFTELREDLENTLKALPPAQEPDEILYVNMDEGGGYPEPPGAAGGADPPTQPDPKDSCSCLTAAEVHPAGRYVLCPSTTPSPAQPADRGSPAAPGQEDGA
Briefly: HotSpot Kinase Assay, AXL.

In another assay the target is c-Kit (Homo sapiens, UniProt P10721). Description: HotSpot Kinase Assay, c-Kit.
The target of a further assay is DDR1 (Homo sapiens, UniProt Q08345). Description: HotSpot Kinase Assay, DDR1.
For another assay, the target named is KDR/VEGFR2 (Homo sapiens, UniProt P35968). Description: HotSpot Kinase Assay, KDR/VEGFR2.

LOK/STK10, sequence (O94804 whole entry): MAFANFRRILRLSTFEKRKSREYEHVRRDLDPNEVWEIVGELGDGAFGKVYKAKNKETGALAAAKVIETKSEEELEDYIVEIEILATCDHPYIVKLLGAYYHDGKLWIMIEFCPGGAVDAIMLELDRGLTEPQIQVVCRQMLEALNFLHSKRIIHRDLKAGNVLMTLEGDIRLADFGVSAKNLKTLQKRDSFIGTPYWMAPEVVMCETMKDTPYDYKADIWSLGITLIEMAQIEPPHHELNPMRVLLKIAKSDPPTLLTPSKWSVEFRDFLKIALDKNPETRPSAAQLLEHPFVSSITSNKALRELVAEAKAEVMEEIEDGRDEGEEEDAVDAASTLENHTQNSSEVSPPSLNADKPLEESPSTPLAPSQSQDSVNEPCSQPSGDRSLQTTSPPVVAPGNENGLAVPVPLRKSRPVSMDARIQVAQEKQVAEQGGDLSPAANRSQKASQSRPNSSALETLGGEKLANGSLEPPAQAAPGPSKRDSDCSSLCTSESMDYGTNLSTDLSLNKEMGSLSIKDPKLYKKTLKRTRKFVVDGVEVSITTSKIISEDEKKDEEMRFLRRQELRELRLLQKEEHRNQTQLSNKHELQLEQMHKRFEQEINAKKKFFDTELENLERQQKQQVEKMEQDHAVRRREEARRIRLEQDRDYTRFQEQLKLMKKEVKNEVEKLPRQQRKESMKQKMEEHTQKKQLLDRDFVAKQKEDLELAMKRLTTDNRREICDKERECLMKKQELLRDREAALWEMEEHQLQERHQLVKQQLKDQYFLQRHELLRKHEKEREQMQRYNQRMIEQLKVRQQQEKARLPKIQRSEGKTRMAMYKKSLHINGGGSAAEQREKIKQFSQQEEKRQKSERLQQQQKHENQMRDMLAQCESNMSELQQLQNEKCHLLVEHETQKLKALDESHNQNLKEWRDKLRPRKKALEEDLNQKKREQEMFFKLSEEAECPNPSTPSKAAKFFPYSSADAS
c-MET, sequence (P08581 25-1390): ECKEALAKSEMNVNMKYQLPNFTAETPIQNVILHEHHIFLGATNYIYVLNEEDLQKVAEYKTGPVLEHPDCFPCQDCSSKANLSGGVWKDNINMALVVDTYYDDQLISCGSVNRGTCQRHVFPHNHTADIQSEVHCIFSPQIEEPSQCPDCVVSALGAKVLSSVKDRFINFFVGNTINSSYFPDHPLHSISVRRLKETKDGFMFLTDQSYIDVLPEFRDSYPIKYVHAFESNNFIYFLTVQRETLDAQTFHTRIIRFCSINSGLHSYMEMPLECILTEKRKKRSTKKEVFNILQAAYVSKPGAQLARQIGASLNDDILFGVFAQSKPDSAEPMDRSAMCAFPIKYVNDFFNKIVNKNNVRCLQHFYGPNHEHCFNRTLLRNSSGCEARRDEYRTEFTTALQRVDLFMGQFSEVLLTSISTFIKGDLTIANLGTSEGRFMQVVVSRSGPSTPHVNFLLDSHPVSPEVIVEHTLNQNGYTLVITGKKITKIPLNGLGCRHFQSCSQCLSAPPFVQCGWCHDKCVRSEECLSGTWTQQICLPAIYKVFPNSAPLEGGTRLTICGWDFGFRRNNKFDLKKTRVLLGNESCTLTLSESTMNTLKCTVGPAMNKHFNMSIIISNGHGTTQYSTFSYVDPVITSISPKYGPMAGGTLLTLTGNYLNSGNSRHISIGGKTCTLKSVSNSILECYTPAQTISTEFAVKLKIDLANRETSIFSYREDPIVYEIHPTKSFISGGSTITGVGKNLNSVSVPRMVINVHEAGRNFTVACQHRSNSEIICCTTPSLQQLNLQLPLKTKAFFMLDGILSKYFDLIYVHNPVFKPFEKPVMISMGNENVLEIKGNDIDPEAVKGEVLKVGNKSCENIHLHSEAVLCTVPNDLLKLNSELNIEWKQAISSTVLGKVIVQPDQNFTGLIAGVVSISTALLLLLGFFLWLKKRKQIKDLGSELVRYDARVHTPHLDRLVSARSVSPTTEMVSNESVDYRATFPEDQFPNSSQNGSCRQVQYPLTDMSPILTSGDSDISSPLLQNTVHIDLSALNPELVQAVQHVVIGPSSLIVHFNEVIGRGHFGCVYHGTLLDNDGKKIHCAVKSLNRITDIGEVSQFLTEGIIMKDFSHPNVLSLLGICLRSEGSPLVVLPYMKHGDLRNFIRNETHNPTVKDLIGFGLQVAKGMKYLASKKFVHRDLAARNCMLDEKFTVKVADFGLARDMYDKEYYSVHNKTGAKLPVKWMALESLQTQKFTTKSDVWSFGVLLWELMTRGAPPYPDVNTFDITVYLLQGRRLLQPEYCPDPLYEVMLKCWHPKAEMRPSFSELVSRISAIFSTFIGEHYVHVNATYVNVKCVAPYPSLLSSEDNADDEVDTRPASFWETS
FMS, sequence (P07333 20-972): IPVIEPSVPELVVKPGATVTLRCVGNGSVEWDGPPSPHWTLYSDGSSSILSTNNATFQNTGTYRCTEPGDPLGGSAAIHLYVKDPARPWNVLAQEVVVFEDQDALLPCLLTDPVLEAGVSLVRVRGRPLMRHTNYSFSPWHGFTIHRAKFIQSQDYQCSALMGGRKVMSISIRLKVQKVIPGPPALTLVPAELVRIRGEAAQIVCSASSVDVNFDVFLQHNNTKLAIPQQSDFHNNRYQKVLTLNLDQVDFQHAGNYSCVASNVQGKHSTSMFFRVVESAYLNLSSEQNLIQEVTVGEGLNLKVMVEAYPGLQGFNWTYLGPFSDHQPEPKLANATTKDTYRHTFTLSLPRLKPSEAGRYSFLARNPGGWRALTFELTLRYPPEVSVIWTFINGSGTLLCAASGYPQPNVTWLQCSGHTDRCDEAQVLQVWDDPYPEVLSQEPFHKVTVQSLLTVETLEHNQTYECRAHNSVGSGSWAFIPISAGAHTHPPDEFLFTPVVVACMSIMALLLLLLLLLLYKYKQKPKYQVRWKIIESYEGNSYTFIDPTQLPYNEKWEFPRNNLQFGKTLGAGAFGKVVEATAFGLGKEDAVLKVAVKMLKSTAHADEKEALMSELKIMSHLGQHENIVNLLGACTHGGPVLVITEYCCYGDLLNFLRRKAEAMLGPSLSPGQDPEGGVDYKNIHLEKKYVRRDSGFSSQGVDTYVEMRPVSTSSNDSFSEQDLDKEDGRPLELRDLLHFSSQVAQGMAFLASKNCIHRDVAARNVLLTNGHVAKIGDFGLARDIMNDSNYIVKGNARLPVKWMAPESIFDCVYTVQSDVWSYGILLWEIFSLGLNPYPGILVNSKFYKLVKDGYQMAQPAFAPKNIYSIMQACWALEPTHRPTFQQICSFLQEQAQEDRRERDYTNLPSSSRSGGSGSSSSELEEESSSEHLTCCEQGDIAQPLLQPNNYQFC
DDR1, sequence (Q08345 19-913): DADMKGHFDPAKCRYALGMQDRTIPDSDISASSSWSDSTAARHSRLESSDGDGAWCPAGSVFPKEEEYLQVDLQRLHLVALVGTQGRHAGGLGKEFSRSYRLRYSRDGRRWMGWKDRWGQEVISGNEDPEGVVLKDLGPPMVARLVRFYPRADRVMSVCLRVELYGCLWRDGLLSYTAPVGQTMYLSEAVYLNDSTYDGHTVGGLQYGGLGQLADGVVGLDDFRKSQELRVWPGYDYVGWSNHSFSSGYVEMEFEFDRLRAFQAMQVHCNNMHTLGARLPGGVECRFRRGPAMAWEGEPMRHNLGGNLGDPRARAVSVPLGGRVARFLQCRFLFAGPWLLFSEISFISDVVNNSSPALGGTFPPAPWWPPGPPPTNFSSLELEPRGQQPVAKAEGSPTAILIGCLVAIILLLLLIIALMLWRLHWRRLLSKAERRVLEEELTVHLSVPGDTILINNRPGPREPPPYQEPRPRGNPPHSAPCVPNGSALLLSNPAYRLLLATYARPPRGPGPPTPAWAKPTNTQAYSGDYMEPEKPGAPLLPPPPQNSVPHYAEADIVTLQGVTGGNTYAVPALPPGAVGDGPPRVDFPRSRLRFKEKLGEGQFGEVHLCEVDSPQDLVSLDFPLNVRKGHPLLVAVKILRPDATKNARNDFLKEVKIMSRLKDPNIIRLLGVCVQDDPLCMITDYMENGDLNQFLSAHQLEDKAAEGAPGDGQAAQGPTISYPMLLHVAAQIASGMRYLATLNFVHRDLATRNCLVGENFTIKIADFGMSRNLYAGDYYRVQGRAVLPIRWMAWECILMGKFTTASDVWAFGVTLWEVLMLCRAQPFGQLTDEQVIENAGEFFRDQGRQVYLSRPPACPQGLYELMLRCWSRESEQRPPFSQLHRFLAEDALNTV
Description for AXL: (§1) Specifically, for each reaction, kinase and substrate were mixed in a pH 7.5 buffer containing 20 mM HEPES, 10 mM MgCl2, 1 mM EGTA [Ethylene glycol-bis(2-aminoethylether)-N,N,N′,N′-tetraacetic acid], 0.02% Brij35, 0.02 mg/mL BSA (Bovine Serum Albumin), 0.1 mM Na3VO4, 2 mM DTT, and 1% DMSO. Compounds were then added to each reaction mixture. After a 20-min incubation, ATP (Sigma-Aldrich) and [γ-^33P] ATP (PerkinElmer) were added at a final total concentration of 100 μM. Reactions were carried out at room temperature for 2 hours and spotted onto P81 ion exchange cellulose chromatography paper (Whatman). […] The percent remaining kinase activity relative to a vehicle-containing (DMSO) kinase reaction was calculated for each kinase/inhibitor pair. […] IC50 values were calculated using Prism 5 (GraphPad).
Description for DDR1: as §1
Description for EPHA2: as §1
Description for FMS: as §1
Description for KDR/VEGFR2: as §1
Description for LOK/STK10: as §1
Description for TYRO3/SKY: as §1
Description for c-Kit: as §1
Description for c-MER: as §1

The IC50 is the concentration needed to halve the response being measured. Take `COc1cc2c(Oc3ccc(NC(=O)C4(C(=O)Nc5ccc(F)cc5)CC4)cc3)ccnc2cc1OC(=O)N1CCN(C)[C@@H](C)C1` [Compound 2-3]: the IC50 on c-MER is less than 100 nM; against TYRO3/SKY, 100 to 1000 nM; at EPHA2, 100 to 1000 nM; against c-MET it was less than 100 nM; at FMS, less than 100 nM; at LOK/STK10 it was 100 to 1000 nM. Moreover, the IC50 was less than 100 nM at AXL, less than 100 nM on c-Kit, less than 100 nM against DDR1 and 100 to 1000 nM at KDR/VEGFR2.

As to `COc1cc2nccc(Oc3ccc(NC(=O)C4(C(=O)Nc5ccc(F)cc5)CC4)cc3)c2cc1OC(=O)N1[C@H](C)CN(C)C[C@@H]1C` [Compound 7-5], the IC50 was less than 100 nM on c-MER; less than 100 nM against TYRO3/SKY; 100 to 1000 nM against EPHA2; less than 100 nM against c-MET; less than 100 nM at FMS; 100 to 1000 nM against LOK/STK10. In addition, the IC50 at AXL, against c-Kit, on DDR1 and on KDR/VEGFR2 was less than 100 nM each time.

As to `COc1cc2c(Oc3ccc(NC(=O)C4(C(=O)Nc5ccc(F)cc5)CC4)cc3)ccnc2cc1OC(=O)N1CCC(F)(F)CC1` [Compound 1-13], the half-maximal inhibitory concentration (IC50) against c-MER was 100 to 1000 nM; against TYRO3/SKY, greater than 1000 nM; against EPHA2, greater than 1000 nM; on c-MET, less than 100 nM; on FMS, greater than 1000 nM; against LOK/STK10, greater than 1000 nM. The IC50 is 100 to 1000 nM on AXL, 100 to 1000 nM at c-Kit, less than 100 nM against DDR1 and greater than 1000 nM on KDR/VEGFR2.

In the case of `COc1cc2c(Oc3ccc(NC(=O)C4(C(=O)Nc5ccc(F)cc5)CC4)cc3)ccnc2cc1OC(=O)N1Cc2cn(S(C)(=O)=O)nc2C1` [Compound 1-16], the IC50 on c-MER is 100 to 1000 nM; against TYRO3/SKY, greater than 1000 nM; on EPHA2 it was greater than 1000 nM; on c-MET, less than 100 nM; against FMS, greater than 1000 nM; against LOK/STK10, greater than 1000 nM. Besides, the IC50 is 100 to 1000 nM at AXL, 100 to 1000 nM against c-Kit, less than 100 nM against DDR1 and greater than 1000 nM at KDR/VEGFR2.

Take `COc1cc2c(Oc3ccc(NC(=O)C4(C(=O)Nc5ccc(F)cc5)CC4)cc3)ccnc2cc1OC(=O)N1CCOCC1` [Compound 1-17]: the IC50 is less than 100 nM at c-MER; greater than 1000 nM against TYRO3/SKY; 100 to 1000 nM against EPHA2; less than 100 nM on c-MET; 100 to 1000 nM against FMS; 100 to 1000 nM on LOK/STK10. Besides, the IC50 was 100 to 1000 nM against AXL, less than 100 nM against c-Kit, less than 100 nM on DDR1 and 100 to 1000 nM against KDR/VEGFR2.

For `COc1cc2c(Oc3ccc(NC(=O)C4(C(=O)Nc5ccc(F)cc5)CC4)cc3F)ncnc2cc1OC(=O)N1CCN(C)C[C@H]1C` [Compound 9-6, 4-(2-fluoro-4-(1-((4-fluorophenyl)carbamoyl)cyclopropane-1-carboxamido)phenoxy)-6-methoxyquinazolin-7-yl (R)-2,4-methylpiperazine-1-carboxylate], the IC50 is less than 100 nM against c-MER; 100 to 1000 nM against TYRO3/SKY; 100 to 1000 nM on EPHA2; less than 100 nM on c-MET; 100 to 1000 nM at FMS; greater than 1000 nM against LOK/STK10. The IC50 was less than 100 nM on AXL, 100 to 1000 nM against c-Kit, less than 100 nM against DDR1 and 100 to 1000 nM against KDR/VEGFR2.

Consider `COc1cc2c(Oc3ccc(NC(=O)C4(C(=O)Nc5ccc(F)cc5)CC4)cc3)ccnc2cc1OC(=O)N1CCNCC1(C)C` [Compound 6-5], for which the IC50 against c-MER was less than 100 nM; against TYRO3/SKY, 100 to 1000 nM; at EPHA2, 100 to 1000 nM; at c-MET it was less than 100 nM; at FMS, 100 to 1000 nM; against LOK/STK10, 100 to 1000 nM. In addition, the IC50 was less than 100 nM at AXL, less than 100 nM on c-Kit, less than 100 nM against DDR1 and greater than 1000 nM at KDR/VEGFR2.

Take `COc1cc2c(Oc3ccc(NC(=O)C4(C(=O)Nc5ccc(F)cc5)CC4)cc3F)ncnc2cc1OC(=O)N1CCNC[C@H]1C` [Compound 9-5]: the IC50 at c-MER is 100 to 1000 nM; on TYRO3/SKY, 100 to 1000 nM; at EPHA2, 100 to 1000 nM; on c-MET, less than 100 nM; against FMS, 100 to 1000 nM; against LOK/STK10 it was 100 to 1000 nM. For the same compound, the IC50 against AXL is less than 100 nM; at c-Kit, 100 to 1000 nM; against DDR1, less than 100 nM; against KDR/VEGFR2 it was 100 to 1000 nM.

For `COc1cc2c(Oc3ccc(NC(=O)C4(C(=O)Nc5ccc(F)cc5)CC4)cc3)ccnc2cc1OC(=O)N1C[C@@H]2C[C@H]1CN2C` [Compound 2-7], the IC50 at c-MER is less than 100 nM; at TYRO3/SKY it was 100 to 1000 nM; on EPHA2, less than 100 nM; on c-MET it was less than 100 nM; against FMS, less than 100 nM; against LOK/STK10, 100 to 1000 nM. Also, the half-inhibitory concentration (IC50) on AXL is less than 100 nM; against c-Kit, less than 100 nM; against DDR1, less than 100 nM; on KDR/VEGFR2 it was 100 to 1000 nM.
